According to ChEMBL document CHEMBL1909046, “DrugMatrix in vitro pharmacology data”:

Key:
[1] = biological target: T1, Alpha-1A adrenergic receptor (Rattus norvegicus, UniProt P43140); experiment: DRUGMATRIX: Alpha-1A adrenergic receptor radioligand binding (ligand: prazosin); type: cell membranes, Wistar, Submaxillary gland, Membrane; settings: Not Active = under 50% inhibition at 10 µM
T1 sequence (P43140 whole entry): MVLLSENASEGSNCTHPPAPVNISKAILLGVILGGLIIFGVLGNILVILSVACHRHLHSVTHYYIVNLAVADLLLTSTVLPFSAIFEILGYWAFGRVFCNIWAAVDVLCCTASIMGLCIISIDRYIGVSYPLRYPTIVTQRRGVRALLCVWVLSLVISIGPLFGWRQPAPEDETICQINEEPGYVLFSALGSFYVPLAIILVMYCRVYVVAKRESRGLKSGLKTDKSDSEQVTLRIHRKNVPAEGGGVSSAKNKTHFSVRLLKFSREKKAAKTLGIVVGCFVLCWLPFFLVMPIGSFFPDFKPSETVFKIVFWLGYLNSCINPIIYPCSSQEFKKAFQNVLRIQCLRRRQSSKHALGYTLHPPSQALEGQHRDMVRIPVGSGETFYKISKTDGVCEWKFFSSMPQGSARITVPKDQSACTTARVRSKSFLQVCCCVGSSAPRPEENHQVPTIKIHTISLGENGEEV

Substance-K receptor = biological target: T2, Substance-K receptor (Homo sapiens, UniProt P21452); type: cell membranes, CHO, Membrane; also: in other assays of this panel Not Active means under 50% inhibition at 10 µM
T2 sequence (P21452 whole entry): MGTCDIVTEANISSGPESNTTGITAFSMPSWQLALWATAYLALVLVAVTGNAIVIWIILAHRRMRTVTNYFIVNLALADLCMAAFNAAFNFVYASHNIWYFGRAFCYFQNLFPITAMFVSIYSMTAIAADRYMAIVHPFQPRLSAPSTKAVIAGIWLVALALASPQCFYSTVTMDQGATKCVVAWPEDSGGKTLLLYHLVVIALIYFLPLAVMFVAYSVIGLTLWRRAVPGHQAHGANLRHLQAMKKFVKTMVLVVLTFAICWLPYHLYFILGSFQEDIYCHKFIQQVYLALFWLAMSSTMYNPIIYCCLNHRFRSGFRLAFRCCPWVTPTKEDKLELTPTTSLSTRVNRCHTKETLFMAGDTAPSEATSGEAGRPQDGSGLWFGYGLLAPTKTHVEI

[2] = DRUGMATRIX: Interleukin IL-1 radioligand binding (ligand: [125I] interleukin 1beta); type: cell membranes, Membrane; settings: nih3t3; Not Active = under 50% inhibition at 10 µM
[3] = DRUGMATRIX: Platelet-Derived Growth Factor (PDGF) radioligand binding (ligand: [125I] PDGF); type: cell-based; settings: nih3t3; Not Active = under 50% inhibition at 10 µM
Cathepsin G = biological target: T3, Cathepsin G (Homo sapiens, UniProt P08311); type: tissue-based; settings: neutrophil;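 also: inhibition of Cathepsin G enzyme activity, tested on an AMC-conjugated peptide substrate; in other assays of this panel Not Active means under 50% inhibition at 10 µM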
T3 sequence (P08311 whole entry): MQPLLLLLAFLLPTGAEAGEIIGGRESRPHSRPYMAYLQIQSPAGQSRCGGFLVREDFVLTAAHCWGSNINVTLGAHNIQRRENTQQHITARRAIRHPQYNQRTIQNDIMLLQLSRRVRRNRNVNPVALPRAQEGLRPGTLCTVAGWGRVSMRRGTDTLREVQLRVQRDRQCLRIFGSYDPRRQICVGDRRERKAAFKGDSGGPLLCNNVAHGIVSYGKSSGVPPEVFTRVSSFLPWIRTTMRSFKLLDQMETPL

[4] = biological target: Tyrosine-protein kinase Lck (Homo sapiens, UniProt P06239); experiment: DRUGMATRIX: Protein Tyrosine Kinase, LCK enzyme inhibition (substrate: Poly(Glu:Tyr)); type: cell-based, Insect cells; settings: insect cells, Not Active = under 50% inhibition at 10 µM
Estrogen receptor beta = Estrogen receptor beta (Homo sapiens, UniProt Q92731); settings: sf9; also: in other assays of this panel Not Active means under 50% inhibition at 10 µM
Sequence of Estrogen receptor beta (Q92731 whole entry): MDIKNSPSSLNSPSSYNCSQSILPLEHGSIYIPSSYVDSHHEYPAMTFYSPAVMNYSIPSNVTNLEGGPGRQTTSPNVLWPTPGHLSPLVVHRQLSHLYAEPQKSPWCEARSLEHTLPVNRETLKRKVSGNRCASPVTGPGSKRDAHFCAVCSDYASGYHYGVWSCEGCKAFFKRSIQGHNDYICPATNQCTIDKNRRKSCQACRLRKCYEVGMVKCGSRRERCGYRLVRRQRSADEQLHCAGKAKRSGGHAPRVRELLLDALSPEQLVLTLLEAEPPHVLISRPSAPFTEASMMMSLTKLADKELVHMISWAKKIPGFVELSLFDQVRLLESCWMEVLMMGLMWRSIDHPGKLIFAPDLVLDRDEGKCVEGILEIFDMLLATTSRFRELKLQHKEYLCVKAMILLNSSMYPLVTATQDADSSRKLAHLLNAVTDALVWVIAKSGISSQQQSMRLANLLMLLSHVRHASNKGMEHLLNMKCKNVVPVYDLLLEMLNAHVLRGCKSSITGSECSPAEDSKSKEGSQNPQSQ

Sequence of Tyrosine-protein kinase Lck (P06239 whole entry): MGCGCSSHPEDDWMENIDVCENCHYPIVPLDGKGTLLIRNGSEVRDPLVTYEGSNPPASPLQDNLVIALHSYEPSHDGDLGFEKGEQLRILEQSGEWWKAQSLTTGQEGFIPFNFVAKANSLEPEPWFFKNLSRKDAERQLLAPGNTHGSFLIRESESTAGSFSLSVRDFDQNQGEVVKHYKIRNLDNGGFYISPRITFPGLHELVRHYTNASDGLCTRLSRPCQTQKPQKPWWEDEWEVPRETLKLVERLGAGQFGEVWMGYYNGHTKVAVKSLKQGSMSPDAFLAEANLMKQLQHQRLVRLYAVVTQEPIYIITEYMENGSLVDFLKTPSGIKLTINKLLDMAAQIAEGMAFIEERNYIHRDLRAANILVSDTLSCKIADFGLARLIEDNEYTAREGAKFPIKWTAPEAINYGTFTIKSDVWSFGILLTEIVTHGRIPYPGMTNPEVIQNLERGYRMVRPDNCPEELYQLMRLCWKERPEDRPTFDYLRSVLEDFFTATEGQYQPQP

Row | Molecule | IC50 [1] | IC50 (Substance-K receptor; cho) | IC50 [2] | Ki [2] | IC50 [3] | Ki [3] | IC50 (Cathepsin G) | IC50 [4] | IC50 (Estrogen receptor beta) | IC50 (Substance-K receptor; read-out: IC50) [µM] | Ki (Substance-K receptor; read-out: Ki) [µM] | Ki [1] | Ki (Substance-K receptor; cho) | Ki (Cathepsin G) | Ki [4] | Ki (Estrogen receptor beta) | IC50 ([4]; read-out: IC50) [µM]
1 | C[C@]12CCC(=O)C=C1CC[C@@H]1[C@@H]2[C@@H](O)C[C@@]2(C)[C@H]1CC[C@]2(O)C(=O)CO [HYDROCORTISONE] | Not Active | Not Active | Not Active | Not Active | Not Active | Not Active | Not Active | Not Active | Not Active |  |  |  |  |  |  |  | 
2 | CC[C@H](C)C(=O)O[C@H]1C[C@@H](C)C=C2C=C[C@H](C)[C@H](CC[C@@H]3C[C@@H](O)CC(=O)O3)[C@H]21 [LOVASTATIN] | Not Active |  | Not Active | Not Active | Not Active | Not Active | Not Active | Not Active | Not Active | 28.2 | 9.41 |  |  |  |  |  | 
3 | CC(C(=O)O)c1ccc(CC2CCCC2=O)cc1 (stereo not given) [LOXOPROFEN] | Not Active | Not Active | Not Active | Not Active | Not Active | Not Active | Not Active | Not Active | Not Active |  |  |  |  |  |  |  | 
4 | Cc1cccc(Nc2ccccc2C(=O)O)c1C [MEFENAMIC ACID] | Not Active | Not Active | Not Active | Not Active | Not Active | Not Active | Not Active | Not Active | Not Active |  |  |  |  |  |  |  | 
5 | CN(Cc1cnc2nc(N)nc(N)c2n1)c1ccc(C(=O)N[C@@H](CCC(=O)O)C(=O)O)cc1 [METHOTREXATE] | Not Active | Not Active | Not Active | Not Active | Not Active | Not Active | Not Active | Not Active | Not Active |  |  |  |  |  |  |  | 
6 | COC(=O)c1ccccc1O [METHYL SALICYLATE] | Not Active | Not Active | Not Active | Not Active | Not Active | Not Active | Not Active | Not Active | Not Active |  |  |  |  |  |  |  | 
7 | COc1ccc2cc(CCC(C)=O)ccc2c1 [NABUMETONE] | Not Active | Not Active | Not Active | Not Active | Not Active | Not Active | Not Active | Not Active | Not Active |  |  |  |  |  |  |  | 
8 | O=C(O)c1cccnc1 [NIACIN] | Not Active | Not Active | Not Active | Not Active | Not Active | Not Active | Not Active | Not Active | Not Active |  |  |  |  |  |  |  | 
9 | CNC(=C[N+](=O)[O-])NCCSCc1csc(CN(C)C)n1 [NIZATIDINE] | Not Active | Not Active | Not Active | Not Active | Not Active | Not Active | Not Active | Not Active | Not Active |  |  |  |  |  |  |  | 
10 | C[C@]12C/C(=C/O)C(=O)C[C@@H]1CC[C@@H]1[C@@H]2CC[C@@]2(C)[C@H]1CC[C@]2(C)O [OXYMETHOLONE] | Not Active | Not Active | Not Active | Not Active | Not Active | Not Active | Not Active | Not Active | Not Active |  |  |  |  |  |  |  | 
11 | CC(C)(CO)C(O)C(=O)NCCCO (stereo not given) [PANTHENOL] | Not Active | Not Active | Not Active | Not Active | Not Active | Not Active | Not Active | Not Active | Not Active |  |  |  |  |  |  |  | 
12 | COc1ccc(Cc2nccc3cc(OC)c(OC)cc23)cc1OC [PAPAVERINE] | Not Active | Not Active | Not Active | Not Active | Not Active | Not Active | Not Active | Not Active | Not Active |  |  |  |  |  |  |  | 
13 | OCCN1CCN(CCCN2c3ccccc3Sc3ccc(Cl)cc32)CC1 [PERPHENAZINE] | Not Active | Not Active | Not Active | Not Active | Not Active | Not Active | Not Active | Not Active | Not Active |  |  |  |  |  |  |  | 
14 | CCCCC1C(=O)N(c2ccccc2)N(c2ccccc2)C1=O [PHENYLBUTAZONE] | Not Active | Not Active | Not Active | Not Active | Not Active | Not Active | Not Active | Not Active | Not Active |  |  |  |  |  |  |  | 
15 | Cc1cccc(Nc2cc(Cl)nc(SCC(=O)O)n2)c1C [PIRINIXIC ACID] | Not Active | Not Active | Not Active | Not Active | Not Active | Not Active | Not Active | Not Active | Not Active |  |  |  |  |  |  |  | 
16 | CC[C@H](C)C(=O)O[C@H]1C[C@H](O)C=C2C=C[C@H](C)[C@H](CC[C@@H](O)C[C@@H](O)CC(=O)O)[C@H]21 [PRAVASTATIN] | Not Active | Not Active | Not Active | Not Active | Not Active | Not Active | Not Active | Not Active | Not Active |  |  |  |  |  |  |  | 
17 | CC(C)(Sc1cc(C(C)(C)C)c(O)c(C(C)(C)C)c1)Sc1cc(C(C)(C)C)c(O)c(C(C)(C)C)c1 [PROBUCOL] | Not Active | Not Active | Not Active | Not Active | Not Active | Not Active | Not Active | Not Active | Not Active |  |  |  |  |  |  |  | 
18 | COBALT(II) ACETYLACETONATE | Not Active | Not Active | Not Active | Not Active | Not Active | Not Active | Not Active | Not Active | Not Active |  |  | Not Active | Not Active | Not Active | Not Active | Not Active | 
19 | INSULIN HUMAN | Not Active | Not Active | Not Active | Not Active | Not Active | Not Active | Not Active |  | Not Active |  |  | Not Active | Not Active | Not Active |  | Not Active | 18.1
20 | POLYVINYL ALCOHOL | Not Active | Not Active | Not Active | Not Active | Not Active | Not Active | Not Active | Not Active | Not Active |  |  | Not Active | Not Active | Not Active | Not Active | Not Active | 
